Laboratory results reported in PubChem BioAssay AID2305 (GlaxoSmithKline (GSK), 2010).

Tested on: P. falciparum 3D7 growth, pLDH absorbance
Test: P. falciparum 3D7 growth inhibition, dose response, strain 3D7 (AID 2305)

| SMILES | IC50 [nM] |
| --- | --- |
| CN1CCN(c2nsc3ccc(-c4ccc(NC(=O)Nc5cc(C(F)(F)F)ccc5F)cc4)cc23)CC1 | 240 |
| CN(C)CCOc1cc(O)c2c(c1)OC(C)(C)C=C2c1cccs1 | 290 |
| Cc1ccc2nc(-c3ccccc3)cc(NN=Cc3cccnc3)c2c1 | 690 |
| Cc1cccc2[nH]c(-c3cccc(-c4ccc(NC(=O)Nc5ccsc5)cc4)c3)nc12 | 120 |
| OC(CNCc1ccccc1Oc1ccccc1)c1cc(Br)cs1 (centres undefined) | 1110 |
| CC(C)c1ccc2c(c1)c(SC(C)(C)C)c(CC(C)(C)C#N)n2Cc1ccc(Cl)cc1 | 220 |
| CC(C)c1ccc(NC(=O)N2CCc3ccc(OCCN(C(C)C)C(C)C)cc32)c(Br)c1 | 1090 |
| COc1ccc2nccc([C@@H](O)CN3CCC(NCc4cc5cccc(OC)c5o4)CC3)c2c1 | 790 |
| CCNC(=O)Nc1ccc(-c2cccc(-c3nc4c(C)cccc4[nH]3)c2)cc1 | 760 |
| CCCc1cc(OC)c(CC2c3cc(O)c(Cl)cc3C(c3ccccc3)CN2C)cc1OC (centres undefined) | 430 |
| CCCc1cc(C(=O)N[C@@H](Cc2ccccc2)[C@H](O)CNC(C)(C)c2cccc(OC)c2)c(F)c(N2CCCC2=O)c1 | 100 |
| NC(=O)C1CCN(Cc2cccc(-c3cccc(-c4nc5ccc(F)cc5[nH]4)c3)c2)CC1 | 850 |
| CC(=NNC(=S)NC(c1ccccc1)c1ccccc1)c1ccccn1 | 900 |
| CC(O)C1CCCCN1C(=O)c1ccc(-c2cccc(-c3nc4ccc(F)cc4[nH]3)c2)cc1 (centres undefined) | 540 |
| Cc1ccc(NC(=O)c2cccc(CN3CCCN(Cc4cccc(O)c4)CC3)c2)cc1C | 1040 |
| Cc1cc(SC(C)(C)C)cc2c(Cl)c(C(N)=O)cnc12 | 1090 |
| CC(C)CC(=O)N1CCNC[C@@H]1C(=O)NCCSCc1c(F)cccc1Cl | 1200 |
| O=C(NC1CC1)c1ccc(N2CCC(Cc3ccccc3)CC2)nc1 | 760 |
| N#Cc1ccccc1C1CCN(C2CCC(Nc3cc(-c4cccnc4)ccn3)CC2)CC1 (centres undefined) | 960 |
| [O-]c1n[n+](C2CCCCC2)no1 | 930 |

| SMILES | IC50 [nM] |
| --- | --- |
| COCCNCc1cccc(-c2cccc(CN(C(=O)Nc3ccccc3)C3CCN(Cc4ccccc4)CC3)c2)c1 | 130 |
| CCNc1cc(C(=O)N[C@@H](Cc2ccccc2)[C@H](O)CNC23CC4CC(CC(C4)C2)C3)cc(N2CCCCS2(=O)=O)c1 | 220 |
| Nc1nc(N)c2c(Cc3ccc(Br)cc3)cccc2n1 | 770 |
| O=C(c1cccc(-c2ccc(-c3nc4ccc(F)cc4[nH]3)s2)c1)N1CCCCC1CN1CCC(O)C1 (centres undefined) | 720 |
| CCOc1c(CNCCCNc2nc3ccccc3[nH]2)cc(I)cc1OC | 660 |
| CCCc1cc(N2CCC(c3ccccc3)(N3CCCCC3)CC2)nc(Nc2ccc(OC)cc2)n1 | 1090 |
| CO/C(=C\C=C\c1cc2cc(Cl)c(Cl)cc2[nH]1)C(=O)NC1C[C@@H](C)N(C)[C@@H](C)C1 (some centres undefined) | 900 |
| Cc1cc(N)c2cc(NC(=O)/C=C/c3ccccc3Cl)ccc2n1 | 400 |
| COc1ccc(C2CCN(CCN3CCC(NC(=O)c4ccc(-c5cccc(C(F)(F)F)c5C(F)(F)F)cc4)CC3)CC2)c(OC)c1 | 420 |
| O=C(/C=C/c1ccc(Cl)c(Cl)c1)NCCCCCN1CCC(NC(=S)Nc2cccc(Cl)c2)CC1 | 870 |
| O=C(Nc1ccc(-c2nc3ccccc3[nH]2)cc1)C1CCCN(C2CCC2)C1 (centres undefined) | 1350 |
| CC(C)CN1CCC(COc2ccc3ncn(-c4cc(O[C@H](C)c5ccccc5C(F)(F)F)c(C(N)=O)s4)c3c2)CC1 | 620 |
| NC1CCN(CCNCc2cccc(-c3ccc(-c4nc5ccc(C(F)(F)F)cc5[nH]4)cc3)c2)C1 (centres undefined) | 890 |
| CN(C)CCC1CCCc2ccc(NC(=O)Nc3ccc(-c4ccncc4)c4ccccc34)cc21 (centres undefined) | 1070 |
| CCOCCCn1c(=N)c(C(=O)NC(C)c2ccccc2)cc2c(=O)n3cccc(C)c3nc21 (centres undefined) | 1200 |
| COc1ccc(OC)c(Cc2c(C)nc3nc(N)nc(N)c3c2C)c1 | 860 |
| O=C(Nc1cccc(C2=NCCN2)c1)Nc1cccc(C2=NCCN2)c1 | 420 |
| COC1CCC(C(=O)Nc2ccc(-c3cccc(-c4nc5ccc(C(F)(F)F)cc5[nH]4)c3)cc2)CC1 (centres undefined) | 550 |
| Cc1cc(O)c(CN(C)Cc2ccc3c(c2)OCO3)cc1C(C)C | 740 |
